# Results: US20110040086A1, “Novel Beta-Lactam Antibiotics, Methods for Their Production, and Their Use” (DRITTE PATENTPORTFOLIO BETEILIGUNGSGESELLSCHAFT MB, priority 2007, published 2011)
# Key:
# E. faecalis 945 = assay: agar diffusion test (Test System II, multi-resistant germs); format: cell-based, Enterococcus faecalis; parameters: key: r = resistant (no detectable zone of inhibition)
# In short: (§1)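 Each plate of Müller-Hinton agar II, inoculated with a saline suspension at McFarland 0.5, carried three discs loaded with 10, 50 and 100 μg of substance. Incubation was 18-20 h at 37 °C, with inhibition zones then measured.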
# S. aureus ATCC 6538 = assay: as above; format: cell-based, Staphylococcus aureus
# In short: as §1
# [1] = test system: Staphylococcus aureus ATCC 6538; assay: mouse infected with Staphylococcus aureus infection model (survival); format: in vivo, BALB/c mice
# In short: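 Survival model: S. aureus grown to extinction 0.6 at 550 nm and injected i.p. (10 μl/g body weight) into cyclophosphamide-pretreated BALB/c mice (250 then 100 mg/kg i.p.), ≥3 animals per arm. Test antibiotic dosed i.p. at 30 min and again later at the same concentration, vehicle PBS/3% DMSO.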
# [2] = logP value by HPLC according to Donovan et al.; details: HPLC, methanol/0.1% phosphoric acid pH 2
# Experimental: • Operating temperature 18-24° C. • Flow 1.5 mL/min • Linear gradient (methanol/0.1% phosphoric acid pH 2) from 10% to 100% methanol in 9.4 min, equilibrium time between 2 runs 6 min
# ca. 0.5 mg of analyte is added to 0.5 ml of a standard solution (440 mg methyl phenyl sulfonate and 380 μl toluene in 150 mL methanol). 2 μl of this sample solution is injected.
# Because the distribution coefficients of the two standards running in each test are known, the distribution coefficient of the analytes can be determined from the relationships of the analyte/standard retention times.
compound,measurement,setting,value
CCOC(=O)C1=C(NC(C(=O)NC2C(=O)N3C(C(=O)O)=C(Cl)CSC23)c2ccccc2)C(=O)C=CC1=O (stereo not shown) [1l],Diameter of zone of inhibition,E. faecalis 945; Quantity n 0.019,r
same,Diameter of zone of inhibition,E. faecalis 945; Quantity n 0.09,r
same,Diameter of zone of inhibition,E. faecalis 945; Quantity n 0.19,r
same,Diameter of zone of inhibition,S. aureus ATCC 6538; Quantity n 0.019,24 mm
same,Diameter of zone of inhibition,S. aureus ATCC 6538; Quantity n 0.09,30 mm
same,Diameter of zone of inhibition,S. aureus ATCC 6538; Quantity n 0.19,34 mm
same,Survival/tested mice n/n,[1]; 2 × 1.0 mg (50 mg/kg) i.p.,3/3
"7-{2-[2-(2-hydroxyethylcarbamoyl)-3,6-dioxocyclohexa-1,4-dienylamino]-2-phenyl-acetylamino}-desacetoxycephalosporanic acid [1e]",Diameter of zone of inhibition,E. faecalis 945; Quantity n 0.029,r
same,Diameter of zone of inhibition,E. faecalis 945; Quantity n 0.14,r
same,Diameter of zone of inhibition,E. faecalis 945; Quantity n 0.29,r
same,Diameter of zone of inhibition,S. aureus ATCC 6538; Quantity n 0.029,20 mm
same,Diameter of zone of inhibition,S. aureus ATCC 6538; Quantity n 0.14,30 mm
same,Diameter of zone of inhibition,S. aureus ATCC 6538; Quantity n 0.29,32 mm
same,Survival/tested mice n/n,[1]; 2 × 0.5 mg (25 mg/kg) i.p.,3/3
"7-{2-2-(2-hydroxyethylcarbamoyl)-3,6-dioxyocyclohexa-1,4-dienylamino]-2-(4-hydroxyphenyl)-acetylamino}-desacetoxycephalosporanic acid [1a]",Diameter of zone of inhibition,E. faecalis 945; Quantity n 0.019,r
same,Diameter of zone of inhibition,E. faecalis 945; Quantity n 0.1,r
same,Diameter of zone of inhibition,E. faecalis 945; Quantity n 0.19,r
same,Diameter of zone of inhibition,S. aureus ATCC 6538; Quantity n 0.019,20 mm
same,Diameter of zone of inhibition,S. aureus ATCC 6538; Quantity n 0.1,28 mm
same,Diameter of zone of inhibition,S. aureus ATCC 6538; Quantity n 0.19,30 mm
same,Survival/tested mice n/n,[1]; 2 × 0.5 mg (25 mg/kg) i.p.,9/9
"CC1=C(C(=O)O)N2C(=O)C(NC(=O)C(NC3=C(C(N)=O)C(=O)C=CC3=O)c3ccccc3)C2SC1 (stereo not shown) [1f, 7-[2-(2-carbamoyl-3,6-dioxocyclohexa-1,4-dienylamino)-2-phenyl-acetylamino]-desacetoxycephalosporanic acid]",Diameter of zone of inhibition,E. faecalis 945; Quantity n 0.02,r
same,Diameter of zone of inhibition,E. faecalis 945; Quantity n 0.1,r
same,Diameter of zone of inhibition,E. faecalis 945; Quantity n 0.2,r
same,Diameter of zone of inhibition,S. aureus ATCC 6538; Quantity n 0.02,20 mm
same,Diameter of zone of inhibition,S. aureus ATCC 6538; Quantity n 0.1,30 mm
same,Diameter of zone of inhibition,S. aureus ATCC 6538; Quantity n 0.2,34 mm
same,Survival/tested mice n/n,[1]; 2 × 0.5 mg (25 mg/kg) i.p.,3/3
"7-[2-(2-ethoxycarbonyl-3,6-dioxocyclohexa-1,4-dienylamino)-2-(4-hydroxyphenyl)-acetylamino]-desacetoxycephalosporanic acid [1d]",Diameter of zone of inhibition,E. faecalis 945; Quantity n 0.029,r
same,Diameter of zone of inhibition,E. faecalis 945; Quantity n 0.14,r
same,Diameter of zone of inhibition,E. faecalis 945; Quantity n 0.29,r
same,Diameter of zone of inhibition,S. aureus ATCC 6538; Quantity n 0.029,14 mm
same,Diameter of zone of inhibition,S. aureus ATCC 6538; Quantity n 0.14,22 mm
same,Diameter of zone of inhibition,S. aureus ATCC 6538; Quantity n 0.29,26 mm
same,Survival/tested mice n/n,[1]; 2 × 0.5 mg (25 mg/kg) i.p.,4/6
"O=C(O)C1=C(Cl)CSC2C(NC(=O)C(NC3=C(C(=O)NCCO)C(=O)C=CC3=O)c3ccccc3)C(=O)N12 (stereo not shown) [1i, 3-chlorine-7-{2-[2-(2-hydroxyethylcarbamoyl)-3,6-dioxocyclohexa-1,4-dienylamino]-2-phenyl-acetylamino}-8-oxo-1-thia-5-azabicyclo[4.2.0]oct-3-en-4-carboxylic acid]",logP value,[2],1.81
same,Diameter of zone of inhibition,E. faecalis 945; Quantity n 0.029,r
same,Diameter of zone of inhibition,E. faecalis 945; Quantity n 0.14,r
same,Diameter of zone of inhibition,E. faecalis 945; Quantity n 0.29,r
same,Diameter of zone of inhibition,S. aureus ATCC 6538; Quantity n 0.029,26 mm
same,Diameter of zone of inhibition,S. aureus ATCC 6538; Quantity n 0.14,34 mm
same,Diameter of zone of inhibition,S. aureus ATCC 6538; Quantity n 0.29,36 mm
same,Survival/tested mice n/n,[1]; 2 × 0.5 mg (25 mg/kg) i.p.,12/12
"NC(=O)C1=C(NC(C(=O)NC2C(=O)N3C(C(=O)O)=C(Cl)CSC23)c2ccccc2)C(=O)C=CC1=O (stereo not shown) [1j, 3-chlorine-7-[2-(2-carbamoyl-3,6-dioxocyclohexa-1,4-dienylamino)-2-phenyl-acetylamino]-8-oxo-1-thia-5-azabicyclo[4.2.0]oct-3-en-4-carboxylic acid]",Diameter of zone of inhibition,E. faecalis 945; Quantity n 0.02,r
same,Diameter of zone of inhibition,E. faecalis 945; Quantity n 0.1,r
same,Diameter of zone of inhibition,E. faecalis 945; Quantity n 0.2,r
same,Diameter of zone of inhibition,S. aureus ATCC 6538; Quantity n 0.02,28 mm
same,Diameter of zone of inhibition,S. aureus ATCC 6538; Quantity n 0.1,34 mm
same,Diameter of zone of inhibition,S. aureus ATCC 6538; Quantity n 0.2,38 mm
same,Survival/tested mice n/n,[1]; 2 × 0.5 mg (25 mg/kg) i.p.,3/3
"7-[2-(2-carbamoyl-3,6-dioxocyclohexa-1,4-dienylamino)-2-(4-hydroxyphenyl)-acetylamino]-desacetoxycephalosporanic acid [1b]",Diameter of zone of inhibition,E. faecalis 945; Quantity n 0.019,r
same,Diameter of zone of inhibition,E. faecalis 945; Quantity n 0.1,r
same,Diameter of zone of inhibition,E. faecalis 945; Quantity n 0.19,r
same,Diameter of zone of inhibition,S. aureus ATCC 6538; Quantity n 0.019,16 mm
same,Diameter of zone of inhibition,S. aureus ATCC 6538; Quantity n 0.1,24 mm
same,Diameter of zone of inhibition,S. aureus ATCC 6538; Quantity n 0.19,28 mm
same,Survival/tested mice n/n,[1]; 2 × 1.0 mg (50 mg/kg) i.p.,6/6
"3-chlorine-7-[2-(2-methoxycarbonyl-3,6-dioxocyclohexa-1,4-dienylamino)-2-phenyl-acetylamino]-8-oxo-1-thia-5-azabicyclo[4.2.0]oct-3-en-4-carboxylic acid [1k]",Diameter of zone of inhibition,E. faecalis 945; Quantity n 0.029,r
same,Diameter of zone of inhibition,E. faecalis 945; Quantity n 0.14,r
same,Diameter of zone of inhibition,E. faecalis 945; Quantity n 0.29,r
same,Diameter of zone of inhibition,S. aureus ATCC 6538; Quantity n 0.029,28 mm
same,Diameter of zone of inhibition,S. aureus ATCC 6538; Quantity n 0.14,36 mm
same,Diameter of zone of inhibition,S. aureus ATCC 6538; Quantity n 0.29,38 mm
same,Survival/tested mice n/n,[1]; 2 × 1.5 mg (75 mg/kg) i.p.,3/3
